Values quoted from earlier work as cited in the PKSmart pharmacokinetics tables (Seal et al. 2025).

Test: Lombardo, Berellini, Obach 2018, Drug Metab Dispos 46:1466, doi 10.1124/dmd.118.082966
Conditions: human; for MRT / Vd / clearance / half-life: in vivo, iv; for fraction unbound: plasma

| MRT | Vd | clearance | half-life | fraction unbound | Compound |
| --- | --- | --- | --- | --- | --- |
| 2.5 h | 1.03 L/kg | 6.83 mL/min/kg | 1.66 h |  | Cn1c(=O)c2c(ncn2CC2OCCO2)n(C)c1=O |
| 2.6 h |  | 7.4 mL/min/kg | 11 h | 0.07 | CCC1=NC(=O)C2CSSCC/C=C/[C@H](CC(=O)NC(C(C)C)C(=O)N2)OC(=O)C(C(C)C)NC1=O (stereo partly drawn) |
| 1.77 h | 0.67 L/kg | 6.3 mL/min/kg | 7 h | 0.11 | COc1ccc([C@@H]2CNC(=O)C2)cc1OC1CCCC1 |
| 1.5 h | 0.98 L/kg | 10.8 mL/min/kg | 1.35 h | 0.2 | CCN(CC)CCOC(=O)C(Cc1cccc2ccccc12)CC1CCCO1 (stereo not drawn) |
| 1 h | 0.13 L/kg | 2 mL/min/kg | 1.9 h |  | C=C1CC[C@@H]2[C@](C)(COC(=O)CCC(=O)O)[C@H](OC(=O)CCC(=O)O)CC[C@@]2(C)[C@@H]1/C=C/C1=CCOC1=O |
| 23.2 h | 9.8 L/kg | 7 mL/min/kg | 49.3 h | 0.006 | C[C@@H]1C[C@@H]2[C@@H]3CC=C4CC(=O)C=C[C@]4(C)C3=CC[C@]2(C)C1C(=O)CN1CCN(c2cc(N3CCCC3)nc(N3CCCC3)n2)CC1 (stereo partly drawn) |
| 1.2 h | 0.086 L/kg | 1.2 mL/min/kg | 1.5 h |  | C[C@@](O)(/C=C/[C@H]1CC=CC(=O)O1)[C@@H](C[C@@H](O)\C=C/C=C\C=C\CO)OP(=O)(O)O |
| 14 h | 0.12 L/kg | 0.14 mL/min/kg | 17 h | 0.004 | CCCc1c(O)n2c(N(C)C)nc3ccc(C)cc3[n+]2c1O |
| 13.6 h | 0.72 L/kg | 0.88 mL/min/kg | 9.8 h | 0.7 | NC(=O)N1c2ccccc2CC(O)c2ccccc21 (stereo not drawn) |
| 0.52 h | 0.65 L/kg | 20.5 mL/min/kg | 0.36 h |  | O=S(=O)(O)CCS |
| 13 h | 0.27 L/kg | 0.34 mL/min/kg | 9.2 h |  | Cc1ccc(S(=O)(=O)NC(=O)N[C@H]2[C@H]3CC[C@@](C)([C@H]2O)C3(C)C)cc1 |
| 104 h | 20 L/kg | 3.2 mL/min/kg | 65.4 h |  | N=C(N)N/N=C1\CCc2c(C(=N)N)cccc21 |
| 37 h | 0.41 L/kg | 0.19 mL/min/kg | 16 h | 0.0044 | COc1cc([C@@H]2c3cc4c(cc3[C@@H](O[C@@H]3O[C@@H]5CO[C@@H](c6cccs6)O[C@H]5[C@H](O)[C@H]3O)[C@H]3COC(=O)C23)OCO4)cc(OC)c1O (stereo partly drawn) |
| 30.4 h | 0.53 L/kg | 0.29 mL/min/kg | 78.5 h | 0.01 | C#CCN(Cc1cc2c(=O)nc(C)[nH]c2cc1C)c1ccc(C(=O)NC(CCc2nnn[nH]2)C(=O)O)c(F)c1 (stereo not drawn) |
| 3 h | 0.55 L/kg | 3.1 mL/min/kg | 5.5 h | 0.17 | CC(=O)NC(CS)C(=O)O (stereo not drawn) |
| 9.6 h | 0.12 L/kg | 0.22 mL/min/kg | 7.6 h | 0.1 | CON=C(C(=O)NC1C(=O)N2C(C(=O)O)=C(CSc3nc(=O)c(O)nn3C)CS[C@H]12)c1csc(N)n1 (stereo partly drawn) |
| 0.06 h | 0.07 L/kg | 18.6 mL/min/kg | 2.2 h | 0.02 | C[C@@H](O[C@H]1OCCN(Cc2nc(=O)n(P(=O)(O)O)[nH]2)[C@H]1c1ccc(F)cc1)c1cc(C(F)(F)F)cc(C(F)(F)F)c1 |
| 0.51 h | 0.09 L/kg | 2.9 mL/min/kg | 0.48 h |  | CCN(CC)c1ccc2cc(C(=O)Nc3ccc4[nH]c(C(=O)N5C[C@@H](CCl)c6c5cc(OC(=O)Nc5ccccc5)c5[nH]cc(C)c65)cc4c3)oc2c1 |
| 5 h | 1.04 L/kg | 3.48 mL/min/kg | 4.07 h | 0.97 | CN(C)CCCO[C@@H]1[C@H]2OC(C)(C)O[C@H]2O[C@@H]1[C@H](O)CO |
| 17.5 h | 12.6 L/kg | 12 mL/min/kg | 22.2 h |  | COc1c(C)cc2c(c1O)[C@@H]1[C@@H]3Cc4c(OC(C)=O)c(C)c5c(c4[C@H](CNC(=O)/C=C/c4cccc(C(F)(F)F)c4)N3[C@@H](O)[C@H](C2)N1C)OCO5 |
| 6.5 h | 0.94 L/kg | 2.4 mL/min/kg | 4.6 h |  | O=C(N[C@H](CO)[C@H](O)c1ccc([N+](=O)[O-])cc1)C(Cl)Cl |
| 10 h | 3 L/kg | 7.7 mL/min/kg | 18 h |  | COC1C(=O)C(C)C[C@H](C)/C=C/C=C/C=C(\C)[C@@H](OC)C[C@@H]2CC[C@@H](C)[C@@](O)(O2)C(=O)C(=O)N2CCCCC2C(=O)O[C@H]([C@H](C)C[C@@H]2CC[C@@H](OC(=O)C(C)(CO)CO)[C@H](OC)C2)CC(=O)C(C)=CC(C)[C@H]1O (stereo partly drawn) |
| 3.92 h | 2.77 L/kg | 11.8 mL/min/kg | 20 h | 0.012 | C=C[C@@H]1C[C@]1(NC(=O)C1C[C@@H](Oc2ncc(OC)c3ccc(Cl)cc23)CN1C(=O)C(NC(=O)OC(C)(C)C)C(C)(C)C)C(=O)NS(=O)(=O)C1CC1 (stereo partly drawn) |
| 2.41 h | 0.12 L/kg | 0.87 mL/min/kg | 2.01 h |  | O=S(=O)(O)c1cc(O)ccc1O |
| 2.4 h | 0.15 L/kg | 1.1 mL/min/kg | 2.1 h |  | CNC[C@@H]1CC[C@@H](N)[C@@H](O[C@@H]2[C@H](O)[C@@H](O[C@H]3OC[C@](C)(O)[C@H](NC)[C@H]3O)[C@H](N)C[C@@H]2N)O1 |
| 18.3 h | 2.42 L/kg | 2.2 mL/min/kg | 20.1 h | 0.82 | C[C@H]1COc2c(N3CCN(C)CC3)c(F)c(N)c3c(=O)c(C(=O)O)cn1c23 |
| 2.1 h |  |  |  |  | NCCCC(O)(P(=O)(O)O)P(=O)(O)O |
| 22.2 h | 15.8 L/kg | 12.4 mL/min/kg | 22.1 h | 0.4 | COc1ccc(CC(C)(C)NC[C@H](O)c2cc(O)cc3c2OCC(=O)N3)cc1 |
| 5.4 h | 0.58 L/kg | 1.8 mL/min/kg | 4.5 h |  | CC(=O)NC[C@H]1CN(c2ccc(N3CCOCC3)c(F)c2)C(=O)O1 |
| 17.2 h | 15.4 L/kg | 15 mL/min/kg | 13.8 h |  | COc1cccc2c1C(=N)c1c(O)c3c(c(O)c1C2=O)C[C@@](O)(C(=O)CO)C[C@@H]3O[C@H]1C[C@H](N)[C@H](O)[C@H](C)O1 |

| Compound | MRT | Vd | clearance | half-life | fraction unbound |
| --- | --- | --- | --- | --- | --- |
| CN(C)C(=O)Oc1ccc[n+](C)c1 | 1.8 h | 1.1 L/kg | 9.6 mL/min/kg | 1.5 h |  |
| CS(=O)(=O)OCCN(CCBr)c1c(C(=O)NCCOP(=O)(O)O)cc([N+](=O)[O-])cc1[N+](=O)[O-] | 0.32 h | 0.86 L/kg | 44.8 mL/min/kg | 0.1 h |  |
| C/C=C/c1cc(OC)c(OC)cc1OC | 1.9 h | 1 L/kg | 8.8 mL/min/kg | 3.7 h |  |
